In patent US20130303509A1, “NAMPT INHIBITORS” (AbbVie Inc., priority 2012, published 2013):
pIC50: −log10 of the molar value.

The compounds below were run on PC3 cells (assay: NAMPT Cell Proliferation Assay). Conditions: Homo sapiens, PC-3, 120 h, 5 days incubation, cell viability by Cell Titer Glo.
Type: cell-based
Method in brief: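 Five-day CellTiter-Glo viability readout in PC3 cells grown in RPMI/10% heat-inactivated FBS. Compounds added after overnight attachment as a 10-fold dilution series, […]. Percent inhibition fitted to sigmoidal dose-response to derive IC50.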

Point of comparison: `CC(C)CC(=O)N1CCC(Oc2ccc(NC(=O)C3CN(c4cccnn4)C3)cc2)CC1` [Example 225, N-(4-{[1-(3-methylbutanoyl)piperidin-4-yl]oxy}phenyl)-1-(pyridazin-3-yl)azetidine-3-carboxamide], pIC50 8.06. Against it:
- O=C(Nc1ccc(C2CCN(C(=O)c3cccc(F)c3)CC2)cc1)C1CN(c2ccnnc2)C1 [Example 554, N-{4-[1-(3-fluorobenzoyl)piperidin-4-yl]phenyl}-1-(pyridazin-4-yl)azetidine-3-carboxamide] — 0.52 log units higher, 8.58
- O=C(Nc1ccc(OC2CCN(C(=O)CC3CC3)CC2)cc1)C1CN(c2cccnn2)C1 [Example 233, N-(4-{[1-(cyclopropylacetyl)piperidin-4-yl]oxy}phenyl)-1-(pyridazin-3-yl)azetidine-3-carboxamide] — the same, 8.06
- O=C(Nc1ccc(C2CCN(C(=O)Cc3ccc(Cl)cc3Cl)CC2)cc1)[C@H]1CCN(c2cccnn2)C1 [Example 651, (3S)-N-(4-{1-[(2,4-dichlorophenyl)acetyl]piperidin-4-yl}phenyl)-1-(pyridazin-3-yl)pyrrolidine-3-carboxamide] — 0.50 log units lower, 7.56
- O=C(Nc1ccc(OC2CN(C(=O)c3ccoc3)C2)cc1)C1CN(c2ccnnc2)C1 [Example 209, N-(4-{[1-(furan-3-ylcarbonyl)azetidin-3-yl]oxy}phenyl)-1-(pyridazin-4-yl)azetidine-3-carboxamide] — 0.97 log units lower, 7.09
- CCC(=O)N1CCC(c2ccc(NC(=O)C3CN(c4cccnn4)C3)cc2)CC1 [Example 440, N-[4-(1-propanoylpiperidin-4-yl)phenyl]-1-(pyridazin-3-yl)azetidine-3-carboxamide] — 0.68 log units higher, 8.74
- O=C(Nc1ccc(OC2CCN(C(=O)C3CCCCC3)CC2)cc1)C1CN(c2cccnc2)C1 [Example 49, N-(4-{[1-(cyclohexylcarbonyl)piperidin-4-yl]oxy}phenyl)-1-(pyridin-3-yl)azetidine-3-carboxamide] — within 0.2 log units, 8.16
- N#Cc1cncc(N2CC(C(=O)Nc3ccc(C4CCN(C(=O)c5ccccc5)CC4)cc3)C2)c1 [Example 740, N-[4-(1-benzoylpiperidin-4-yl)phenyl]-1-(5-cyanopyridin-3-yl)azetidine-3-carboxamide] — 2.02 log units lower, 6.04
- O=C(Nc1ccc(C2CCN(C(=O)c3cncs3)CC2)cc1)C1CN(c2cccnn2)C1 [Example 431, 1-(pyridazin-3-yl)-N-{4-[1-(1,3-thiazol-5-ylcarbonyl)piperidin-4-yl]phenyl}azetidine-3-carboxamide] — 0.72 log units higher, 8.78
- O=C(Nc1ccc(C2CCN(C(=O)c3cc(F)cc(F)c3)CC2)cc1)[C@H]1CCN(c2cccnn2)C1 [Example 659, (3S)-N-{4-[1-(3,5-difluorobenzoyl)piperidin-4-yl]phenyl}-1-(pyridazin-3-yl)pyrrolidine-3-carboxamide] — within 0.2 log units, 7.95
- O=C(Nc1ccc(O[C@H]2CCN(C(=O)c3ccccc3F)C2)cc1)[C@H]1CCN(c2cccnn2)C1 [Example 825, (3S)—N-(4-{[(3S)-1-(2-fluorobenzoyl)pyrrolidin-3-yl]oxy}phenyl)-1-(pyridazin-3-yl)pyrrolidine-3-carboxamide] — 0.85 log units lower, 7.21
- O=C(Nc1ccc(O[C@@H]2CCN(C(=O)c3cccc(F)c3)C2)cc1)C1CN(c2cccnn2)C1 [Example 518, N-(4-{[(3R)-1-(3-fluorobenzoyl)pyrrolidin-3-yl]oxy}phenyl)-1-(pyridazin-3-yl)azetidine-3-carboxamide] — 1.00 log units higher, 9.06
- CCCCC(=O)N1CCC(c2ccc(NC(=O)C3CN(c4cccnc4C)C3)cc2)CC1 [Example 159, 1-(2-methylpyridin-3-yl)-N-[4-(1-pentanoylpiperidin-4-yl)phenyl]azetidine-3-carboxamide] — 1.32 log units lower, 6.74
- Cc1ccc(C(=O)N2CCC(c3ccc(NC(=O)[C@H]4CCN(c5cccnn5)C4)cc3)CC2)cn1 [Example 656, (3S)-N-(4-{1-[(6-methylpyridin-3-yl)carbonyl]piperidin-4-yl}phenyl)-1-(pyridazin-3-yl)pyrrolidine-3-carboxamide] — 0.85 log units lower, 7.21
- O=C(Nc1ccc(C2CCN(C(=O)C(F)(F)c3ccccc3)CC2)cc1)C1CN(c2ccnnc2)C1 [Example 558, N-(4-{1-[difluoro(phenyl)acetyl]piperidin-4-yl}phenyl)-1-(pyridazin-4-yl)azetidine-3-carboxamide] — 1.12 log units higher, 9.18
- CC(C)(C)C(=O)N1CC[C@@H](Oc2ccc(NC(=O)C3CN(c4cccnn4)C3)cc2)C1 [Example 523, N-(4-{[(3R)-1-(2,2-dimethylpropanoyl)pyrrolidin-3-yl]oxy}phenyl)-1-(pyridazin-3-yl)azetidine-3-carboxamide] — 0.94 log units higher, 9.00
- CC(C)(C)CC(=O)N1CCC(c2ccc(NC(=O)[C@H]3CCN(c4cccnn4)C3)cc2)CC1 [Example 723, (3S)-N-{4-[1-(3,3-dimethylbutanoyl)piperidin-4-yl]phenyl}-1-(pyridazin-3-yl)pyrrolidine-3-carboxamide] — 0.40 log units higher, 8.46
- CC1(C(=O)N2CCC(c3ccc(NC(=O)C4CN(c5cccnn5)C4)c(F)c3)CC2)CC1 [Example 861, N-(2-fluoro-4-{1-[(1-methylcyclopropyl)carbonyl]piperidin-4-yl}phenyl)-1-(pyridazin-3-yl)azetidine-3-carboxamide] — within 0.2 log units, 8.12
- O=C(Nc1ccc(O[C@@H]2CCN(C(=O)c3cc(F)cc(F)c3)C2)cc1)C1CN(c2ccnnc2)C1 [Example 474, N-(4-{[(3R)-1-(3,5-difluorobenzoyl)pyrrolidin-3-yl]oxy}phenyl)-1-(pyridazin-4-yl)azetidine-3-carboxamide] — 0.90 log units lower, 7.16
- O=C(Nc1ccc(S(=O)(=O)C2CCN(C(=O)C3CCCCC3)CC2)cc1)C1CN(c2cccnn2)C1 [Example 568, N-(4-{[1-(cyclohexylcarbonyl)piperidin-4-yl]sulfonyl}phenyl)-1-(pyridazin-3-yl)azetidine-3-carboxamide] — 0.74 log units lower, 7.32
- CC1(C(=O)N2C3CCC2CC(c2ccc(NC(=O)C4CN(c5cccnn5)C4)cc2)C3)CC1 (stereo not shown) [Example 845, N-(4-{8-[(1-methylcyclopropyl)carbonyl]-8-azabicyclo[3.2.1]oct-3-yl}phenyl)-1-(pyridazin-3-yl)azetidine-3-carboxamide] — 0.62 log units higher, 8.68
- O=C(Nc1ccc(O[C@@H]2CCN(C(=O)c3ccc(OC(F)(F)F)cc3)C2)cc1)C1CN(c2ccnnc2)C1 [Example 477, 1-(pyridazin-4-yl)-N-[4-({(3R)-1-[4-(trifluoromethoxy)benzoyl]pyrrolidin-3-yl}oxy)phenyl]azetidine-3-carboxamide] — 1.43 log units lower, 6.63
- O=C(Nc1ccc(C2CCN(C(=O)CCC(F)(F)F)CC2)cc1)[C@H]1CCN(c2cccnn2)C1 [Example 653, (3S)-1-(pyridazin-3-yl)-N-{4-[1-(4,4,4-trifluorobutanoyl)piperidin-4-yl]phenyl}pyrrolidine-3-carboxamide] — within 0.2 log units, 8.01
- CC(C)(C(=O)N1CC[C@@H](Oc2ccc(NC(=O)C3CN(c4cccnn4)C3)cc2)C1)c1ccccc1 [Example 508, N-(4-{[(3R)-1-(2-methyl-2-phenylpropanoyl)pyrrolidin-3-yl]oxy}phenyl)-1-(pyridazin-3-yl)azetidine-3-carboxamide] — 1.04 log units higher, 9.10
- O=C(Nc1ccc(C2CCN(C(=O)c3cccc(Cl)c3)CC2)cc1)C1CN(c2cccnn2)C1 [Example 351, N-{4-[1-(3-chlorobenzoyl)piperidin-4-yl]phenyl}-1-(pyridazin-3-yl)azetidine-3-carboxamide] — 0.57 log units higher, 8.63
- CC(C)c1ccc(C(=O)N2CCC(c3ccc(NC(=O)[C@H]4CCN(c5cccnn5)C4)cc3)CC2)cc1 [Example 729, (3S)-N-(4-{1-[4-(propan-2-yl)benzoyl]piperidin-4-yl}phenyl)-1-(pyridazin-3-yl)pyrrolidine-3-carboxamide] — within 0.2 log units, 7.87
- CC(C)CC(=O)N1CCC(c2ccc(NC(=O)C3CN(c4cccnc4)C3)cc2)CC1 [Example 137, N-{4-[1-(3-methylbutanoyl)piperidin-4-yl]phenyl}-1-(pyridin-3-yl)azetidine-3-carboxamide] — 1.45 log units higher, 9.51
- O=C(Nc1ccc(C2CCN(C(=O)c3ccccc3F)CC2)cc1)[C@H]1CCN(c2cccnn2)C1 [Example 637, (3S)-N-{4-[1-(2-fluorobenzoyl)piperidin-4-yl]phenyl}-1-(pyridazin-3-yl)pyrrolidine-3-carboxamide] — 0.85 log units higher, 8.91
- Cc1ccc(OCC(=O)N2CCC(c3ccc(NC(=O)[C@H]4CCN(c5cccnn5)C4)cc3)CC2)cc1 [Example 636, (3S)-N-(4-{1-[(4-methylphenoxy)acetyl]piperidin-4-yl}phenyl)-1-(pyridazin-3-yl)pyrrolidine-3-carboxamide] — 0.98 log units lower, 7.08
- Cc1ncccc1N1CC(C(=O)Nc2ccc(C3CCN(C(=O)CC(C)C)CC3)cc2)C1 [Example 197, N-{4-[1-(3-methylbutanoyl)piperidin-4-yl]phenyl}-1-(2-methylpyridin-3-yl)azetidine-3-carboxamide] — 1.07 log units lower, 6.99
- O=C(Nc1ccc(S(=O)(=O)C2CCN(C(=O)Cc3cc(F)cc(F)c3)CC2)cc1)C1CN(c2cccnn2)C1 [Example 585, N-[4-({1-[(3,5-difluorophenyl)acetyl]piperidin-4-yl}sulfonyl)phenyl]-1-(pyridazin-3-yl)azetidine-3-carboxamide] — 1.51 log units lower, 6.55
- O=C(Nc1ccc(C2CCN(C(=O)Cc3ccc4ccccc4c3)CC2)cc1)C1CN(c2cccnn2)C1 [Example 421, N-{4-[1-(naphthalen-2-ylacetyl)piperidin-4-yl]phenyl}-1-(pyridazin-3-yl)azetidine-3-carboxamide] — 0.37 log units higher, 8.43
- CCC(C)CC(=O)N1CCC(c2ccc(NC(=O)C3CN(c4cccnc4C)C3)cc2)CC1 (stereo not shown) [Example 160, N-{4-[1-(3-methylpentanoyl)piperidin-4-yl]phenyl}-1-(2-methylpyridin-3-yl)azetidine-3-carboxamide] — 1.30 log units lower, 6.76
- CC(C)(C)C(=O)N1CC(c2ccc(NC(=O)[C@H]3CCN(c4cccnn4)C3)cc2)C1 [Example 789, (3S)-N-{4-[1-(2,2-dimethylpropanoyl)azetidin-3-yl]phenyl}-1-(pyridazin-3-yl)pyrrolidine-3-carboxamide] — 0.51 log units lower, 7.55
